Data reported in PubChem BioAssay (NCI).
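The compound was tested at five concentrations on cells cultured in 96-well plates, with a 48-hour exposure period. GI50 is the concentration that inhibits growth by half. TGI is the concentration that stops growth completely.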

How the values were obtained:
Assay in all cases: inhibition of tumour cell growth, NCI panel, 48 h
[1] = tested on: HL-60(TB) leukemia
[2] = tested on: SK-MEL-2 melanoma
[3] = tested on: K-562 leukemia
[4] = tested on: CCRF-CEM leukemia
[5] = tested on: SF-295 CNS
[6] = tested on: SF-539 CNS
[7] = tested on: IGROV1 ovarian
[8] = tested on: KM12 colon
[9] = tested on: U251 CNS
[10] = tested on: UACC-62 melanoma

Structure (SMILES) | GI50 [1] | TGI [1] | GI50 [2] | TGI [2] | GI50 [3] | TGI [3] | GI50 [4] | TGI [4] | GI50 [5] | TGI [5] | GI50 [6] | TGI [6] | GI50 [7] | TGI [7] | GI50 [8] | TGI [8] | GI50 [9] | TGI [9] | GI50 [10] | TGI [10]
COc1ccc(/C=C/C(=O)c2ccc(SC)cc2)cc1OC | 25.7 µM | 79.6 µM | 19.4 µM | 42.6 µM | 4.09 µM | 33.8 µM | 5.26 µM | 82.1 µM | 6.47 µM | 40.2 µM | 12 µM | 27.3 µM | 4.73 µM | 25.2 µM | 3.9 µM | 22.6 µM | 3.53 µM | 13.8 µM | 12.7 µM | 27.1 µM
Clc1cc(Cc2cc(Cl)c(Cl)c3c2OCOC3)c2c(c1Cl)COCO2 | – | > 100 µM | – | > 100 µM | – | > 100 µM | – | > 100 µM | – | 78.8 µM | – | 52.3 µM | – | > 100 µM | – | > 100 µM | – | > 100 µM | – | > 100 µM
O=C(c1ccco1)c1nc2cc(Cl)ccc2[n+]([O-])c1C(F)(F)F | 24.3 µM | 46.8 µM | > 100 µM | > 100 µM | 22.2 µM | 54.3 µM | 0.0182 µM | 0.443 µM | 94 µM | > 100 µM | > 100 µM | > 100 µM | 54.5 µM | > 100 µM | 29.3 µM | > 100 µM | 70.9 µM | > 100 µM | 40.7 µM | > 100 µM
COc1cc(-c2nn(-c3cccc(NC(=O)Nc4cc(C(F)(F)F)cc(C(F)(F)F)c4)c3)cc2-c2ccncc2)ccc1Cl | 0.551 µM | 11.9 µM | 1.01 µM | 2.04 µM | 0.279 µM | 3.03 µM | 0.498 µM | 2.79 µM | 0.241 µM | 0.921 µM | 0.836 µM | 1.75 µM | 0.592 µM | 2.34 µM | 0.412 µM | 2.09 µM | 0.36 µM | 1.13 µM | 0.496 µM | 1.5 µM
N[C@@H]1CCCC[C@H]1N.O=C([O-])C(=O)[O-].[Pt+4] | 2.83 µM | > 100 µM | 5.15 µM | 52.9 µM | 0.854 µM | > 95.3 µM | 0.35 µM | > 100 µM | 4.71 µM | > 100 µM | 10 µM | > 83.8 µM | 1.85 µM | 35.9 µM | 10.9 µM | > 100 µM | 1.83 µM | 27.1 µM | 2.2 µM | 23.5 µM
N#CC(C(=O)CCC(=O)C(C#N)c1ccccc1)c1ccccc1 (stereo not drawn) | – | > 100 µM | – | > 100 µM | – | > 100 µM | – | > 100 µM | – | > 100 µM | – | > 100 µM | – | > 100 µM | – | > 100 µM | – | > 100 µM | – | > 100 µM
CCOC(=O)N1CCc2cc(OC)c(OC)c3c2c1cc1cc(OC)c(OC)cc13 | – | > 100 µM | – | > 51.8 µM | – | > 75.9 µM | – | > 58.3 µM | – | 35.2 µM | – | 9.17 µM | – | > 100 µM | – | 67.7 µM | – | 67.1 µM | – | 63 µM
Nc1c(Br)cc(Br)c2c1[nH]c(=O)c1ccccc12 | > 100 µM | > 100 µM | 20.7 µM | 60.3 µM | 37.3 µM | > 100 µM | 14 µM | > 81.8 µM | 3.1 µM | 10.2 µM | 42 µM | > 100 µM | 4.85 µM | 38.5 µM | > 100 µM | > 100 µM | 5.08 µM | 26.7 µM | 46.8 µM | > 100 µM
CC(C)[C@H](CO)Nc1nc(Nc2ccc(C(=O)NCCNS(=O)(=O)c3cccc4c(N(C)C)cccc34)c(Cl)c2)c2ncn(C(C)C)c2n1 | 2.65 µM | 7.43 µM | 2.67 µM | 7.73 µM | 3.92 µM | > 100 µM | 3.01 µM | > 100 µM | 1.75 µM | > 100 µM | 1.68 µM | 4.39 µM | 2.62 µM | > 25.1 µM | 0.447 µM | 2.72 µM | 2.72 µM | > 100 µM | 3.4 µM | > 100 µM
Ic1ccccc1-c1ccccc1 | 37.1 µM | > 100 µM | 76 µM | > 100 µM | > 100 µM | > 100 µM | 41.5 µM | > 100 µM | > 100 µM | > 100 µM | > 100 µM | > 100 µM | > 100 µM | > 100 µM | > 100 µM | > 100 µM | > 100 µM | > 100 µM | 46.7 µM | > 100 µM
C/C(=N/Nc1nc2ccccc2n1C)c1ccccn1 | 0.0177 µM | 0.391 µM | 0.706 µM | 22.3 µM | 0.0173 µM | > 100 µM | 0.0252 µM | – | 0.28 µM | 4.97 µM | 0.225 µM | 1.94 µM | 0.0327 µM | 12.5 µM | 0.202 µM | 20.7 µM | 0.115 µM | 19.7 µM | 0.14 µM | 0.793 µM
NC(N)=N/N=C\c1cccc(OCc2ccccc2)c1 | 2.66 µM | 6.35 µM | 3.31 µM | 13 µM | 3.87 µM | 16.1 µM | 9.53 µM | 33.7 µM | 4.64 µM | 20.4 µM | 5.11 µM | 20 µM | 6.07 µM | 23.8 µM | 2.41 µM | 8.33 µM | 1.87 µM | 4.12 µM | 1.67 µM | 3.45 µM
COc1ccc(/C=C\c2cc(OC)c(OC)c(OC)c2)cc1OC(=O)c1cccc(Cn2cc(CCOC(=O)[C@H](N)Cc3cn(C)c4ccccc34)nn2)c1 | < 0.01 µM | – | 15.4 µM | > 83.5 µM | < 0.01 µM | > 22.4 µM | < 0.01 µM | > 100 µM | 0.0295 µM | 12.5 µM | < 0.01 µM | 0.272 µM | < 0.0136 µM | > 100 µM | < 0.01 µM | 16.5 µM | < 0.01 µM | > 100 µM | < 0.01 µM | 24.2 µM
